Source: patent US20080200454A1, “CARBON-LINKED TETRAHYDRO-PYRAZOLO-PYRIDINE MODULATORS OF CATHEPSIN S” (priority 2007, published 2008)
Read-outs that look alike come from different tables or passages of the source.

Target: Recombinant human cathepsin S (CatS) (Homo sapiens, UniProt P25774)
Experiment: Recombinant human cathepsin S (CatS) inhibition assay, fluorogenic substrate Z-Valine-Valine-Arginine-AMC;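 also: Baculovirus-expressed CatS in pH 5.0 sodium acetate buffer with DTT and NaCl, fluorescence read each minute over 20 min, inhibition derived from rate slope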
[1] = CatS IC50, Table 2, average of results obtained

Recombinant human cathepsin S (CatS), sequence (P25774 115-331): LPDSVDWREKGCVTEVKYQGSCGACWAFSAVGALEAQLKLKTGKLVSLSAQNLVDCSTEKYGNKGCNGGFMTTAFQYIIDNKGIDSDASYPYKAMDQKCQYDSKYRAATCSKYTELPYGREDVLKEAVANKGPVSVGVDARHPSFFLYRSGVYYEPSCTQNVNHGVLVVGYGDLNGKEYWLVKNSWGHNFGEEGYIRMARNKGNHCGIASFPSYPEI

IC50 | Structure (SMILES) | further results
60 nM | CS(=O)(=O)N1CCc2c(c(-c3ccc(Cl)c(C#Cc4ccc5c(c4)CNCC5)c3)nn2CCCN2CCC(C(N)=O)CC2)C1 [Example 135, 1-(3-{3-[4-Chloro-3-(1,2,3,4-tetrahydro-isoquinolin-7-ylethynyl)-phenyl]-5-methanesulfonyl-4,5,6,7-tetrahydro-pyrazolo[4,3-c]pyridin-1-yl}-propyl)-piperidine-4-carboxylic acid amide] | 
50 nM | COC(=O)C(=O)N1CCc2c(c(-c3ccc(Cl)c(C#Cc4ccc(Cl)cc4)c3)nn2CCCN2CCOCC2)C1 [Example 136, [3-[4-Chloro-3-(4-chloro-phenylethynyl)-phenyl]-1-(3-morpholin-4-yl-propyl)-1,4,6,7-tetrahydro-pyrazolo[4,3-c]pyridin-5-yl]-oxo-acetic acid methyl ester] | 
 | O=C(c1ccccn1)N1CCc2c(c(-c3ccc(Cl)c(C#Cc4ccc(Cl)cc4)c3)nn2CCCN2CCOCC2)C1 [Example 137, [3-[4-Chloro-3-(4-chloro-phenylethynyl)-phenyl]-1-(3-morpholin-4-yl-propyl)-1,4,6,7-tetrahydro-pyrazolo[4,3-c]pyridin-5-yl]-pyridin-2-yl-methanone] | IC50 (CatS IC50): 140 nM
 | O=C(c1ccco1)N1CCc2c(c(-c3ccc(Cl)c(C#Cc4ccc(Cl)cc4)c3)nn2CCCN2CCOCC2)C1 [Example 138, [3-[4-Chloro-3-(4-chloro-phenylethynyl)-phenyl]-1-(3-morpholin-4-yl-propyl)-1,4,6,7-tetrahydro-pyrazolo[4,3-c]pyridin-5-yl]-furan-2-yl-methanone] | IC50 [1]: 350 nM
 | O=C(N1CCc2c(c(-c3ccc(Cl)c(C#Cc4ccc(Cl)cc4)c3)nn2CCCN2CCOCC2)C1)C(F)(F)F [Example 139, 1-[3-[4-Chloro-3-(4-chloro-phenylethynyl)-phenyl]-1-(3-morpholin-4-yl-propyl)-1,4,6,7-tetrahydro-pyrazolo[4,3-c]pyridin-5-yl]-2,2,2-trifluoro-ethanone] | IC50 [1]: 230 nM
 | O=C(CF)N1CCc2c(c(-c3ccc(Cl)c(C#Cc4ccc(Cl)cc4)c3)nn2CCCN2CCOCC2)C1 [Example 140, 1-[3-[4-Chloro-3-(4-chloro-phenylethynyl)-phenyl]-1-(3-morpholin-4-yl-propyl)-1,4,6,7-tetrahydro-pyrazolo[4,3-c]pyridin-5-yl]-2-fluoro-ethanone] | IC50 [1]: 250 nM
 | O=C(C1CCCO1)N1CCc2c(c(-c3ccc(Cl)c(C#Cc4ccc(Cl)cc4)c3)nn2CCCN2CCOCC2)C1 (stereo not drawn) [Example 141, [3-[4-Chloro-3-(4-chloro-phenylethynyl)-phenyl]-1-(3-morpholin-4-yl-propyl)-1,4,6,7-tetrahydro-pyrazolo[4,3-c]pyridin-5-yl]-(tetrahydro-furan-2-yl)-methanone] | IC50 (CatS IC50): 310 nM
 | CC(=O)OCC(=O)N1CCc2c(c(-c3ccc(Cl)c(C#Cc4ccc(Cl)cc4)c3)nn2CCCN2CCOCC2)C1 [Example 142, Acetic acid 2-[3-[4-chloro-3-(4-chloro-phenylethynyl)-phenyl]-1-(3-morpholin-4-yl-propyl)-1,4,6,7-tetrahydro-pyrazolo[4,3-c]pyridin-5-yl]-2-oxo-ethyl ester] | IC50 (CatS IC50): 280 nM
60 nM | NC(=O)N1CCc2c(c(-c3ccc(Cl)c(C#Cc4ccc(Cl)cc4)c3)nn2CCCN2CCOCC2)C1 [Example 144, 3-[4-Chloro-3-(4-chloro-phenylethynyl)-phenyl]-1-(3-morpholin-4-yl-propyl)-1,4,6,7-tetrahydro-pyrazolo[4,3-c]pyridine-5-carboxylic acid amide] | 
90 nM | NC(=O)N1CCc2c(c(-c3ccc(Cl)c(CCc4ccc(Cl)cc4)c3)nn2CCCN2CCOCC2)C1 [Example 145, 3-{4-Chloro-3-[2-(4-chloro-phenyl)-ethyl]-phenyl}-1-(3-morpholin-4-yl-propyl)-1,4,6,7-tetrahydro-pyrazolo[4,3-c]pyridine-5-carboxylic acid amide] | 
60 nM | CS(=O)(=O)N1CCc2c(c(-c3ccc(C(F)(F)F)c(CCc4ccc(Cl)cc4)c3)nn2CC(O)CN2CCC(N3CCCC3=O)CC2)C1 (stereo not drawn) [Example 146, 1-{1-[3-(3-{3-[2-(4-Chloro-phenyl)-ethyl]-4-trifluoromethyl-phenyl}-5-methanesulfonyl-4,5,6,7-tetrahydro-pyrazolo[4,3-c]pyridin-1-yl)-2-hydroxy-propyl]-piperidin-4-yl}-pyrrolidin-2-one] | 
410 nM | CS(=O)(=O)N1CCc2c(c(-c3ccc(C(F)(F)F)c(CCc4ccc(Cl)cc4)c3)nn2CC(O)CN2CCOCC2)C1 (stereo not drawn) [Example 147, 1-(3-{3-[2-(4-Chloro-phenyl)-ethyl]-4-trifluoromethyl-phenyl}-5-methanesulfonyl-4,5,6,7-tetrahydro-pyrazolo[4,3-c]pyridin-1-yl)-3-morpholin-4-yl-propan-2-ol] | 
80 nM | CS(=O)(=O)N1CCc2c(c(-c3ccc(Cl)c(CCc4ccc(Cl)cc4)c3)nn2CC(O)CN2CCC3(CCNC3=O)CC2)C1 (stereo not drawn) [Example 148, 8-[3-(3-{4-Chloro-3-[2-(4-chloro-phenyl)-ethyl]-phenyl}-5-methanesulfonyl-4,5,6,7-tetrahydro-pyrazolo[4,3-c]pyridin-1-yl)-2-hydroxy-propyl]-2,8-diaza-spiro[4.5]decan-1-one] | 
110 nM | CS(=O)(=O)N1CCc2c(c(-c3ccc(Cl)c(CCc4ccc(Cl)cc4)c3)nn2CC(O)CN2CCOCC2)C1 (stereo not drawn) [Example 149, 1-(3-{4-Chloro-3-[2-(4-chloro-phenyl)-ethyl]-phenyl}-5-methanesulfonyl-4,5,6,7-tetrahydro-pyrazolo[4,3-c]pyridin-1-yl)-3-morpholin-4-yl-propan-2-ol] | 
80 nM | NC(=O)C(=O)N1CCc2c(c(-c3ccc(Cl)c(C#Cc4ccc(CNCc5ccc(Cl)cc5)cc4)c3)nn2CCCN2CCOCC2)C1 [Example 150, 2-[3-(4-Chloro-3-{[4-({[(4-chlorophenyl)methyl]amino}methyl)phenyl]ethynyl}phenyl)-1-(3-morpholin-4-ylpropyl)-1,4,6,7-tetrahydro-5H-pyrazolo[4,3-c]pyridin-5-yl]-2-oxoacetamide] | 
90 nM | NC(=O)N1CCc2c(c(-c3ccc(Cl)c(C#Cc4ccc(CNCc5ccc(Cl)cc5)cc4)c3)nn2CCCN2CCOCC2)C1 [Example 151, 3-(4-Chloro-3-{[4-({[(4-chlorophenyl)methyl]amino}methyl)phenyl]ethynyl}phenyl)-1-(3-morpholin-4-ylpropyl)-1,4,6,7-tetrahydro-5H-pyrazolo[4,3-c]pyridine-5-carboxamide] | 
110 nM | CN(C)C(=O)C(=O)N1CCc2c(c(-c3ccc(Cl)c(C#Cc4ccc(CNCc5ccc(Cl)cc5)cc4)c3)nn2CCCN2CCOCC2)C1 [Example 152, 2-[3-(4-Chloro-3-{[4-({[(4-chlorophenyl)methyl]amino}methyl)phenyl]ethynyl}phenyl)-1-(3-morpholin-4-ylpropyl)-1,4,6,7-tetrahydro-5H-pyrazolo[4,3-c]pyridin-5-yl]-N,N-dimethyl-2-oxoacetamide] | 
180 nM | CN(C)S(=O)(=O)N1CCc2c(c(-c3ccc(Cl)c(C#Cc4ccc(CNCc5ccc(Cl)cc5)cc4)c3)nn2CCCN2CCOCC2)C1 [Example 153, 3-(4-Chloro-3-{[4-({[(4-chlorophenyl)methyl]amino}methyl)phenyl]ethynyl}phenyl)-N,N-dimethyl-1-(3-morpholin-4-ylpropyl)-1,4,6,7-tetrahydro-5H-pyrazolo[4,3-c]pyridine-5-sulfonamide] | 
260 nM | NCC(=O)N1CCc2c(c(-c3ccc(Cl)c(C#Cc4ccc(CNCc5ccc(Cl)cc5)cc4)c3)nn2CCCN2CCOCC2)C1 [Example 154, 2-[3-(4-Chloro-3-{[4-({[(4-chlorophenyl)methyl]amino}methyl)phenyl]ethynyl}phenyl)-1-(3-morpholin-4-ylpropyl)-1,4,6,7-tetrahydro-5H-pyrazolo[4,3-c]pyridin-5-yl]-2-oxoethanamine] | 
790 nM | CNC(=O)N1CCc2c(c(-c3ccc(Cl)c(C#Cc4ccc(CNCc5ccc(Cl)cc5)cc4)c3)nn2CCCN2CCOCC2)C1 [Example 155, 3-(4-Chloro-3-{[4-({[(4-chlorophenyl)methyl]amino}methyl)phenyl]ethynyl}phenyl)-N-methyl-1-(3-morpholin-4-ylpropyl)-1,4,6,7-tetrahydro-5H-pyrazolo[4,3-c]pyridine-5-carboxamide] | 
50 nM | NC(=O)N1CCc2c(c(-c3ccc(Cl)c(C#Cc4ccc(CNCc5ccc(Cl)cc5)cc4)c3)nn2CCCN2CCN(c3ccccn3)CC2)C1 [Example 156, 3-(4-Chloro-3-{[4-({[(4-chlorophenyl)methyl]amino}methyl)phenyl]ethynyl}phenyl)-1-[3-(4-pyridin-2-ylpiperazin-1-yl)propyl]-1,4,6,7-tetrahydro-5H-pyrazolo[4,3-c]pyridine-5-carboxamide] | 
 | C[C@H]1COC[C@H](C)N1CCCn1nc(-c2ccc(Cl)c(C#Cc3ccc(CNCc4ccc(Cl)cc4)cc3)c2)c2c1CCN(C(=O)C(N)=O)C2 [Example 157, 2-(3-{4-Chloro-3-[(4-{[(4-chlorobenzyl)amino]methyl}phenyl)ethynyl]phenyl}-1-{3-[(3S,5S)-3,5-dimethylmorpholin-4-yl]propyl}-1,4,6,7-tetrahydro-5H-pyrazolo[4,3-c]pyridin-5-yl)-2-oxoacetamide] | IC50 (CatS IC50): 40 nM
50 nM | C[C@H]1COCCN1CCCn1nc(-c2ccc(Cl)c(C#Cc3ccc(CNCc4ccc(Cl)cc4)cc3)c2)c2c1CCN(C(=O)C(N)=O)C2 [Example 158, 2-[3-(4-Chloro-3-{[4-({[(4-chlorophenyl)methyl]amino}methyl)phenyl]ethynyl}phenyl)-1-{3-[(3S)-3-methylmorpholin-4-yl]propyl}-1,4,6,7-tetrahydro-5H-pyrazolo[4,3-c]pyridin-5-yl]-2-oxoacetamide] | 
60 nM | NC(=O)C(=O)N1CCc2c(c(-c3ccc(Cl)c(C#Cc4ccc5c(c4)CN(Cc4ccc(Cl)cc4)CC5)c3)nn2CCCN2CCOCC2)C1 [Example 159, 2-{3-[4-Chloro-3-({2-[(4-chlorophenyl)methyl]-1,2,3,4-tetrahydroisoquinolin-7-yl}ethynyl)phenyl]-1-(3-morpholin-4-ylpropyl)-1,4,6,7-tetrahydro-5H-pyrazolo[4,3-c]pyridin-5-yl}-2-oxoacetamide] | 
